13 compounds from PMC12150632, “Chalcones inhibit firefly bioluminescence dependent on A and B-ring substitution pattern – a structure-activity study combined with molecular docking” (Journal of Enzyme Inhibition and Medicinal Chemistry, 2025) can be followed below.

The experiment addresses T1, firefly luciferase (FLuc) (Photinus pyralis, UniProt P08659).
T1 construct: purchased Sigma-Aldrich; host or cells: E. coli
In words: Inhibition assay of luciferase (purified recombinant enzyme, bioluminescence readout). The class given is biochemical. The settings on record: n = 3; for pIC50: sigmoidal fit, concentration series 100 µM to 13 nM and 300 µM to 0.41 nM; for Inhibition (%) of FLuc: compound concentration 10 µM; for Inhibition (%) of FLuc / inhibition at 10 µM: relative to DMSO vehicle control; for inhibition at 10 µM: read-out: Inhibition (%) of FLuc, compound concentration 10 µM. How it is done:
25 µL of luciferase protein (c = 0.6 µg/mL, Sigma-Aldrich, recombinant expressed in E.coli) in Trisbuffer (10 mM Tris, 10 mM KCl, 1 mM EGTA, 30% glycerol) pH7.4 were added to each well of a white 96 well plate (Brand). The compounds were added in 1 µL DMSO at various concentrations. After incubation of the enzyme with the compounds for 10 min at room temperature, 80 µL of FLuc buffer (25 mM glycylglycin, 4 mM EGTA, 15 mM MgSO4, 15 mM PPB) was added and the light signal was immediately measured using a multiplate reader (Clariostar, BMG) with a gain of 2500 and a measurement interval time of 2 s. Inhibition was calculated in relation to the control, enzyme treated with vehicle (DMSO).
OriginPro 2021b (64-bit) SR2 (9.8.5.212) (OriginLab) was used to determine the inhibition and IC50 values and prepare the figures. The IC50 values were calculated from the sigmoidal fit of the log scale concentration without fixing the parameters.
The inhibitory activity of all chalcones was evaluated at a concentration of 10 µM on purified recombinant firefly luciferase, as this concentration would also be used in the reporter gene assay to determine neurogenic activity.
To obtain the IC50 values and construct a concentration-response curve, chalcones were measured in the assay using a series of decreasing concentrations, ranging from 100 µM to 13 nM and from 300 µM to 0.41 nM.

pIC50: −log10 of the molar value.

T1 sequence (P08659 whole entry): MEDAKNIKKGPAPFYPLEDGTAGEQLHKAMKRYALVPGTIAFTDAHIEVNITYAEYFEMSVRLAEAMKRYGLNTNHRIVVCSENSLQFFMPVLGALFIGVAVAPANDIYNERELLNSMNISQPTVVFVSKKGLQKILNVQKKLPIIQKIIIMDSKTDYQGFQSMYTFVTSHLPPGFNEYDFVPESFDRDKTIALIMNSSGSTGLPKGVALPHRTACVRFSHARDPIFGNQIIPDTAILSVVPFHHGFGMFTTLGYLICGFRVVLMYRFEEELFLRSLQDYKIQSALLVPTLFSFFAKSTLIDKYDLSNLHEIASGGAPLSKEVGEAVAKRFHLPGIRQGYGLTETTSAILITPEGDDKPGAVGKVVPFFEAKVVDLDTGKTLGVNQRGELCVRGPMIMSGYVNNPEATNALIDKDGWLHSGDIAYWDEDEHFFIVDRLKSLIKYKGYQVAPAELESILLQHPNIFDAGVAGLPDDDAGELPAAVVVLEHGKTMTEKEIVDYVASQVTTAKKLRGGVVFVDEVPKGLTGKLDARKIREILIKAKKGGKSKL

Turning to `O=C(O)c1cccc(-c2noc(-c3ccccc3F)n2)c1` [Ataluren, reference compound], the pIC50 was 6.96.

On to `CC1(C)C=Cc2cc(C(=O)/C=C/c3ccc(O)cc3)ccc2O1` [Compound 2, (E)-1–(2,2dimethyl-2H-chromen-6-yl)-3–(4-hydroxyphenyl)prop-2-en-1-one], for which the inhibition at 10 µM was 30%. Moreover, the “Inhibition (%) of FLuc” value (10 µM) came to 32%.

`COc1cc2c(cc1C(=O)/C=C/c1ccc(O)cc1)C=CC(C)(C)O2` [Compound 3, (E)-3–(4-hydroxyphenyl)-1–(7-methoxy-2,2-dimethyl-2H-chromen-6-yl)prop-2-en-1-one]: the inhibition at 10 µM is less than 5%.

As for `CC1(C)C=Cc2c(ccc(C(=O)/C=C/c3ccc(O)cc3)c2O)O1` [Compound 4, (E)-1–(5-hydroxy-2,2-dimethyl-2H-chromen-6-yl)-3–(4-hydroxyphenyl)prop-2-en-1-one], the inhibition at 10 µM was less than 10%.

With `CC1(C)C=Cc2cc(C(=O)/C=C/c3ccc(O)cc3)c(O)cc2O1` [Compound 5, (E)-1–(7-hydroxy-2,2-dimethyl-2H-chromen-6-yl)-3–(4-hydroxyphenyl)prop-2-en-1-one], the inhibition at 10 µM was less than 5%.

Regarding `CC1(C)C=Cc2cc(C(=O)/C=C/c3ccc(O)cc3)ccc2N1` [Compound 6, (E)-1–(2,2-dimethyl-1,2-dihydroquinolin-6-yl)-3–(4-hydroxyphenyl)prop-2-en-1-one], the inhibition at 10 µM worked out at 18%.

Regarding `CC1(C)C=Cc2cc(C(=O)/C=C/c3ccc(N)cc3)ccc2O1` [Compound 8, (E)-3–(4-aminophenyl)-1–(2,2-dimethyl-2H-chromen-6-yl)prop-2-en-1-one], the “Inhibition (%) of FLuc” value is recorded as “comparable to that of the hydroxyl group”.

On to `CC1(C)C=Cc2cc(C(=O)/C=C/c3ccc(Cl)cc3)ccc2O1` [Compound 12, (E)-3–(4-chlorphenyl)-1–(2,2-dimethyl-2H-chromen-6-yl)prop-2-en-1-one], for which the “Inhibition (%) of FLuc” value is recorded as “near-complete elimination of the inhibitory effect”.

Regarding `CC1(C)C=Cc2cc(C(=O)/C=C/c3ccc(C(F)(F)F)cc3)ccc2O1` [Compound 13, (E)-1–(2,2-dihmethyl-2H-chromen-6-yl)-3–(4-(trifluoromethyl)phenyl)prop-2-en-1-one], the “Inhibition (%) of FLuc” value is listed as “near-complete elimination of the inhibitory effect”.

Take `CC1(C)C=Cc2cc(C(=O)/C=C/c3ccccc3)ccc2O1` [Compound 14, (E)-1–(2,2-dimethyl-2H-chromen-6-yl)-3-phenylprop-2-en-1-one]: the “Inhibition (%) of FLuc” value was “most pronounced inhibitory effect” and the negative-log IC50 (pIC50) is greater than 5.00.

On to `CC1(C)C=Cc2cc(C(=O)/C=C/c3cccc(O)c3O)ccc2O1` [Compound 18, (E)-3–(2,3-dihydroxyphenyl)-1–(2,2-dimethyl-2H-chromen-6-yl)prop-2-en-1-one], for which the pIC50 is greater than 5.00.

“(E)-1–(2,2-dimethyl-2H-thiochromen-6-yl)-3–(4-methoxyphenyl)prop-2-en-1-one [Compound 7]”: the “Inhibition (%) of FLuc” value was “less than 10%”.

On to “(E)-1–(7-hydroxy-5-methoxy-2,2-dimethyl-2H-chromen-6-yl)-3–(4-hydroxyphenyl)prop-2-en-1-one [Compound 1]”, for which the “Inhibition (%) of FLuc” value is, setting by setting: (10 µM) “no inhibition”; (listed as xanthohumol C, 10 µM) “no inhibitory effect”.

Broadly, the pIC50 is the IC50 on a negative log10 scale, so that one unit is a factor of ten.
